Results from US20090197910A1, “NOVEL VIRAL REPLICATION INHIBITORS” (KATHOLIEKE UNIVERSITEIT LEUVEN, priority 2006, published 2009).

Key:
[1] = tested on: HCV Subgenomic Replicon; assay: HCV-Huh-5-2 replicon cell assay (luciferase); format: cell-based, Hepatitis C virus; details: HCV subgenomic replicon in Huh-5-2 cells, 72 hours, luciferase; read-out: EC50 (concentration required to inhibit luciferase activity in the replicon system by 50%)
Protocol: (§1) Huh-5-2 cells [a cell line with a persistent HCV replicon I3891uc-ubi-neo/NS3-3′/5.1; replicon with firefly luciferase-ubiquitin-neomycin phosphotransferase fusion protein and EMCV-IRES driven NS3-5B HCV polyprotein] was cultured in RPMI medium (Gibco) supplemented with 10% fetal calf serum, 2 mM L-glutamine (Life Technologies), 1× non-essential amino acids (Life Technologies); 100 IU/ml penicillin and 100 ug/ml streptomycin and 250 ug/ml G418 (Geneticin, Life Technologies). Cells were seeded at a densitiy of 7000 cells per well in 96 well View Plate™ (Packard) in medium containing the same components as described above, except for G418. Cells were allowed to adhere and proliferate for 24 hr. At that time, culture medium was removed and serial dilutions of the test compounds were added in culture medium lacking G418. Interferon alfa 2a (500 IU) was included as a positive control. Plates were further incubated at 37° C. and 5% CO2 for 72 hours. Replication of the HCV replicon in Huh-5 cells results in luciferase activity in the cells. Luciferase activity is measured by adding 50 μl of 1× Glo-lysis buffer (Promega) for 15 minutes followed by 50 ul of the Steady-Glo Luciferase assay reagent (Promega). Luciferase activity is measured with a luminometer and the signal in each individual well is expressed as a percentage of the untreated cultures. Parallel cultures of Huh-5-2 cells, seeded at a density of 7000 cells/well of classical 96-well cell culture plates (Becton-Dickinson) are treated in a similar fashion except that no Glo-lysis buffer or Steady-Glo Luciferase reagent is added. Instead the density of the culture is measured by means of the MTS method (Promega).

[2] = tested on: Huh-5-2 cells; assay: Cytostatic effect on Huh-5-2 cells (MTS method, parallel cultures); format: cell-based; details: 72 hours, read-out: CC50 (concentration required to inhibit the proliferation of exponentially growing Huh-5-2 cells by 50%)
Protocol: as §1

With `CC(=O)OCC1OC(n2c(SCc3cc4cc(Br)ccc4oc3=O)nc3cc(Cl)c(Cl)cc32)C(OC(C)=O)C(OC(C)=O)C1OC(C)=O` (centres unmarked) [Compound 7g, Acetic acid 3,5-diacetoxy-2-acctoxymethyl-6-[2-(6-bromo-2-oxo-2H-chromen-3-ylmethylsulfanyl)-5,6-dichloro-benzoimidazol-1-yl]-tetrahydro-pyran-4-yl ester] as the compound, how does the EC50 [1] read?
Its EC50 is 4.08 µM.

What about the CC50 [2] of the same compound?
Its CC50 is greater than 64.8 µM.
